Experiment: Detection of RONS in plasma-treated polymer solutions (strips, AR/HRP reagent, Griess reagent)
Assay type: physicochemical
Conditions: 200 μL
From the text: In the examples presented here, two kinds of atmospheric plasma jet were used: a commercially available cold atmospheric plasma jet kINPen IND (NEOPLAS Tools, Germany), operating with argon and an atmospheric pressure plasma jet (APPJ) using He as plasma gas in a jet design based on a single electrode. Gas flow was regulated between 1 and 2.5 L/min for kINPen and between 1 and 5 L/min for APPJ by using Ar and He Bronkhorst Mass View flow controllers (BRONKHORST, Netherlands), respectively. All plasma treatments of polymeric solutions for RONS quantification were performed on 200 μL of the polymeric solution in 96-well plates, with a distance between the nozzle and the sample surface between 10 and 20 mm. These plasma treatments were done with ungrounded samples. Both grounded and ungrounded samples can be used to obtain the compositions of the present invention, since the skilled person can set the plasma treatment conditions to obtain the desired RONS concentrations.
Determination of NO2^− concentration in plasma-treated polymer solutions was performed using Griess reagent. The Griess reagent used was obtained by dissolving 1% wt/v of sulphanilamide, 0.1% wt/v of N-(1-naphthyl)ethylenediamine dihydrochloride (NEED) and 5% w/v of phosphoric acid in de-ionized water. 200 μL of Griess reagent were added on 200 μL of sample in 96 well-plates. The plates were incubated for 10 min at room temperature protected from the light. The absorbance was measured at λabs=540 nm using a Synergy HTX Hybrid Multi Mode Microplate Reader (BioTek Instruments, Inc., USA). The [NO2^−] in each sample was determined from the absorbance values by using a calibration curve made from NaNO2 dilutions in the corresponding polymer solutions.
The concentration of hydrogen peroxide was determined by reaction of H2O2 with Amplex Red in presence of HRP enzyme that leads to the creation of resorufin, a fluorescent product. Amplex Red/HRP reagent consists in 100 μM of Amplex Red and 0.25 U/mL HRP in DI water. Since the higher concentration of H2O2 able to be processed properly by this reagent is around 10 μM of H2O2, plasma-treated polymer solutions were diluted 200 times previously to the addition of the reagent. In this case, for hydrogen peroxide detection, 50 μL of the Amplex Red/HRP reagent was added to 200 μL of the 200×-diluted polymer solution sample in a 96-well plate and incubated for 30 min at 37° C. Subsequent fluorescence measurements were performed by means of a Synergy HTX Hybrid Multi Mode Microplate Reader (BioTek Instruments, Inc., USA), with fluorescence filters centred at λex=560/20 nm and λem=590/20 nm as excitation and emission wavelengths, respectively. Concentrations of H2O2 in polymer solution generated by plasma treatment were obtained from the fluorescence values using a calibration curve made from 30% hydrogen peroxide solution in the corresponding polymer solutions.
For certain polymer solutions, interferences may be found between the solution and the reactants, invalidating the measure. In such cases, another method was used to determine the concentration of H2O2, […] in the polymer solutions after plasma treatment: QUANTOFIX® test strips, which were analyzed by means of a reflexion photometer (QUANTOFIX® Relax, of Macherey Nagel). The strips consist of plastic strips to which test paper has been sealed. Nitrite strips are also based in Griess reagent. Peroxide strips also use a redox reaction. The range of detection of the test strips used for H2O2, NO3^− and NO2^− were 1-100 mg/L, 10-500 mg/L and 1-80 mg/L, respectively. The plasma-treated polymer solutions were diluted, if necessary, to be within the measuring range.

H2O2 (APPJ, treat. time 180 s): 9.2 mg/L
NO2^− (APPJ, treat. time 180 s): 1.7 mg/L
H2O2 (APPJ, treat. time 300 s): 16.4 mg/L
NO2^− (APPJ, treat. time 300 s): 2.7 mg/L
H2O2 (kINPen, treat. time 180 s): 10.3 mg/L
NO2^− (kINPen, treat. time 180 s): 2.6 mg/L
H2O2 (kINPen, treat. time 300 s): 29.3 mg/L
NO2^− (kINPen, treat. time 300 s): 2.7 mg/L
Substance: Water
